From article PMC12965331 (Biochemistry, 2025)

Assays:
HNMT = HNMT (Homo sapiens, UniProt P50135); assay: HNMT specificity screen; assay type: biochemical
NSP10–14 ExoN = NSP10–14 ExoN (Severe acute respiratory syndrome coronavirus 2, UniProt P0DTD1); assay type: biochemical, SARS-CoV-2
RNase H = RNase H (Escherichia coli, UniProt P0A7Y4)
NSP14 ExoN = conditions: cited from earlier work

Chain of RNase H (P0A7Y4 whole entry): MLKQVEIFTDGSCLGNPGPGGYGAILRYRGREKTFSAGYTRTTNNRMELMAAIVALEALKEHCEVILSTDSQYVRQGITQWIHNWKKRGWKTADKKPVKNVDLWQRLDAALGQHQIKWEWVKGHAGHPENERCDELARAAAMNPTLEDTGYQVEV
Chain of HNMT (P50135 whole entry): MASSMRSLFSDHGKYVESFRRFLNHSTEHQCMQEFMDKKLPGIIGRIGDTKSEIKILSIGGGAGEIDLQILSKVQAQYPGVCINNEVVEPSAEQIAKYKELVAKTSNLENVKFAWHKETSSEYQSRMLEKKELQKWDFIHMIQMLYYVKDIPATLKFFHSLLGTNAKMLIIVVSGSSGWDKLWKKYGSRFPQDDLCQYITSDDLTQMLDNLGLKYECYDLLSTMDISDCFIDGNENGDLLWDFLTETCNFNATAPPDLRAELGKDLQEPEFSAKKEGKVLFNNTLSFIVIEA

**Q.** Which results are given for `CC(=O)N1CCN(c2ccc(C(=O)N3CCN(Cc4ccccc4)CC3)nn2)C(=O)C1` [NCGC00537446]?
**A.** activity against HNMT (off-target) (HNMT): some activity; effect on VMAX, ExoN RNA substrate (NSP10–14 ExoN): more clearly influenced; mechanism of inhibition with respect to ExoN RNA substrate (NSP10–14 ExoN): noncompetitive; change in KM for ExoN RNA substrate (NSP10–14 ExoN; concentrations below 2 μM of compound): no significant change; activity against RNase H (off-target) (RNase H): some activity; potency difference between NSP14 ExoN and RNase H (RNase H): greater than 10 fold

**Q.** Which “inhibition of NSP14 ExoN activity, affinity” value (NSP14 ExoN) does the source give for `O=C1C=C2C(=CCOC2O)O1` (stereo not shown) [Patulin] here?
**A.** Its value is “micromolar affinity”.
